Assay results as given in patent US8287923B2, “Compositions and methods for treating immune disorders” (priority 2005, dated 2012).

Tests used:
NS-SV-AC cells = experiment: Semi-quantitative RT-PCR of SS-A/Ro and SS-B/La mRNA; assay type: cell-based, human; settings: 100 uM EGCG, different times
Protocol: (§1) Cell treatment: ECCG was dissolved in cell culture media as a 50 mM stock immediately before use. Exponentially growing NS-SV-AC cells were incubated with 100 μM ECCG for various time periods in the growth media described above, and then were either extracted for total RNA or cell lysates prior to RT-PCR or Western blots.
(§2) Total RNA was extracted using an RNeasy total RNA isolation system (QIAGEN, Valentia, Calif.) RT reactions and PCR reactions were performed according to the manufacturer's protocol (Super Array Bioscience Corp). For amplification, the following pair of primers was used,
(§3) Amplification was started by heating for 1.5 min at 94° C., followed by 30 cycles for 52 kD SSA/Ro. 25 cycles for GAPDH and 25 cycles for SSB/La, each cycle consisting of 15
(§4) second at 94° C., 30 seconds at 57.3° C., and 1 min at 72° C. A final extension was performed at 72° C. for 5 min prior to gel analysis.
(§5) To further test this possibility, three cell types, NHEK, NS-SV-AC (an SV40 immortalized cell line derived from human submandibular acinar cells) and OC2 cells (derived from an oral squamous cell carcinoma) were treated with 100 uM EGCG for different times. A semi-quantitative estimate of SS-A/Ro and SS-B/La mRNA levels was then obtained by RT-PCR during the exponential period of amplification. GAPDH was used as a housekeeping gene control.

NHEK = experiment: as above; assay type: cell-based, human; settings: 100 uM EGCG, different times
Protocol: as §1, §2, §3, §4, §5

O=C(O[C@@H]1Cc2c(O)cc(O)cc2O[C@@H]1c1cc(O)c(O)c(O)c1)c1cc(O)c(O)c(O)c1 [EGCG, (−)-epigallocatechin-3-gallate]
SS-B/La mRNA level (NS-SV-AC cells): decreased progressively and substantially | SS-B/La mRNA level (NHEK): decreased progressively and substantially
